Converted amounts (≈) assume the structure as drawn.
Test: Thermodynamic aqueous solubility, shake-flask
Type: physicochemical
Details: PBS pH 7.4, 24 h, 25° C., assay standards
Excerpt: In addition, chromatographic purity (%) was defined as the peak area of the principal peak relative to the total integrated peak area in the HPLC chromatogram of the calibration standard. A chromatogram of the calibration standard of each test compound, along with a UV/VIS spectrum with labeled absorbance maxima, was generated.

[1] = PBS (shake-flask), aqueous buffer, thermodynamic from solid

SMILES | solubility at 24 h [µM] | solubility at 24 h [1] [µM]
CC/C(=C(/CC)c1ccc(O)cc1)c1ccc(O)cc1 [Diethylstilbesterol] | 7.0 (≈ 1.88 µg/mL) | –
CC(=O)N1CCN(c2ccc(OCC3COC(Cn4ccnc4)(c4ccc(Cl)cc4Cl)O3)cc2)CC1 (centres unmarked) [Ketoconazole] | – | 153 (≈ 81.2 µg/mL)
COCCc1ccc(OCC(O)CNC(C)C)cc1 (centres unmarked) [Metoprolol] | – | 193 (≈ 51.5 µg/mL)
O=C1NC(=O)C(c2ccccc2)(c2ccccc2)N1 [Phenytoin] | – | 102 (≈ 25.7 µg/mL)
CO[C@H]1/C=C/O[C@@]2(C)Oc3c(C)c(O)c4c(O)c(c(/C=N/N5CCN(C)CC5)c(O)c4c3C2=O)NC(=O)/C(C)=C\C=C\[C@H](C)[C@H](O)[C@@H](C)[C@@H](O)[C@@H](C)[C@H](OC(C)=O)[C@@H]1C [Rifampicin] | – | 200 (≈ 165 µg/mL)

Reference: patent US20240245647A1, “ISOMEROHYDROLASE INHIBITOR FOR TREATMENT OF ATROPHIC FORM OF AGE-RELATED MACULAR DEGENERATION AND STARGARDT DISEASE” (The Trustees of Columbia University in the City of New York, priority 2021, published 2024)
